In general, IC50 refers to the concentration that gives 50% inhibition.

This test concerns the target T1, human TRPV4 (Homo sapiens, UniProt Q9HBA0).
T1 construct: host or cells: tetracycline-inducible Flp-In T-REx 293 cells
As to the kind of experiment: Hypotonicity-induced Ca2+ influx (Fluo-4, FDSS). It counts as cell-based. The method, boiled down:
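Flp-In T-REx 293 cells with tetracycline-induced human TRPV4, loaded with Fluo-4 for 60 min at 25 °C. Compound added 5 min before hypotonic mannitol/CaCl2 solution. Ca2+ signal recorded for 4.5 min on FDSS.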

The mark [1] stands for this setting: Flp-In T-REx 293 cells expressing human TRPV4, examples listed under heading 'Human IC50<50 nM'.
Where [2] appears, read: Flp-In T-REx 293 cells stably expressing human TRPV4, compounds listed by potency bin (<10 nM Tables 96-1/96-2, <3 nM Table 97).

T1 sequence (Q9HBA0 whole entry): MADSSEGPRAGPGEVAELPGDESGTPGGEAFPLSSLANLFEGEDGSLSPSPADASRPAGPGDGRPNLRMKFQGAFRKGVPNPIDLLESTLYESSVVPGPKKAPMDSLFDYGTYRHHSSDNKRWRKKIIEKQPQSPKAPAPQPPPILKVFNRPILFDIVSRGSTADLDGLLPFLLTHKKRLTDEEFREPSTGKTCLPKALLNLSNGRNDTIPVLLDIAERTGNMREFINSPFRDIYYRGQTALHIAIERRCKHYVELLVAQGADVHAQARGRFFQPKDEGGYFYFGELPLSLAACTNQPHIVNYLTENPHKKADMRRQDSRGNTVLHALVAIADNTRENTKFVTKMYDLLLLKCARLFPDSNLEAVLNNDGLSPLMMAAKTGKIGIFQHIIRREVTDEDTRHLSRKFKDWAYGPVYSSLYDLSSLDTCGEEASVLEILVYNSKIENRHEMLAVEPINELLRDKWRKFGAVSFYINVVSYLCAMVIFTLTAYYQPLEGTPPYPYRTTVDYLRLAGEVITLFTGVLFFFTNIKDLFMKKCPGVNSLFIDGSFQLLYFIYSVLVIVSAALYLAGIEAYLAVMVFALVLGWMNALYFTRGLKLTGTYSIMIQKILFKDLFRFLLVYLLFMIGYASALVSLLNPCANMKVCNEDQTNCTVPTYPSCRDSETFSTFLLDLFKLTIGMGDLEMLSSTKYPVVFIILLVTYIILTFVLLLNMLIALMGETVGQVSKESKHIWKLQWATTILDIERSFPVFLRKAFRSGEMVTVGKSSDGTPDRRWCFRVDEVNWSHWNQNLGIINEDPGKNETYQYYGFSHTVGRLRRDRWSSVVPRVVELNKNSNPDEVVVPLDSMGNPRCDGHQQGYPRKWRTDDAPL

As to `O=C([C@H](O)c1cccc(C(F)(F)F)c1)N1CCCc2nc(C3(c4cccc(-c5nc6ccccc6s5)c4)CC3)[nH]c(=O)c2C1` [17-97], the IC50 is less than 50 nM under setting [1] and less than 10 nM under setting [2].
For `O=C([C@H](O)c1cccc(C(F)(F)F)c1)N1CCCc2nc(C3(c4cccc(-c5cnc(-c6ccccc6)s5)c4)CC3)[nH]c(=O)c2C1` [17-98] the same measures were less than 50 nM and less than 3 nM.
As for `O=C(Cc1cccc(-c2cccc(C(F)(F)F)c2)c1)N1CCCc2nc(C3(c4cccc(Cl)c4)CC3)[nH]c(=O)c2C1` [17-99], the IC50 reads like this: under setting [1], less than 50 nM; under setting [2], less than 10 nM.
In the case of `O=C(Cc1cccc(-c2cccc(Cl)c2)c1)N1CCCc2nc(C3(c4cccc(Cl)c4)CC3)[nH]c(=O)c2C1` [17-100], the IC50 reads like this: under setting [1], less than 50 nM; under setting [2], less than 3 nM.
Molecule `O=C(COc1ccc(-c2ccccc2)cc1)N1CCCc2nc(C3(c4cccc(Cl)c4)CC3)[nH]c(=O)c2C1` [17-102] gave an IC50 under setting [1] of less than 50 nM.
Still for that read-out and setting: in the case of `O=C(COc1cccc(-c2ccccc2)c1)N1CCCc2nc(C3(c4cccc(Cl)c4)CC3)[nH]c(=O)c2C1` [17-105] it was less than 50 nM; in that of `O=C(Cc1cccc(-c2cccc(C(F)(F)F)c2)c1)N1CCCc2c(nc(C3(c4ccccc4)CC3)[nH]c2=O)C1` [17-109], less than 50 nM.
Turning to `O=C(Cc1cccc(C(F)(F)F)c1)N1CCCc2nc(C3(c4cccc(Cl)c4)CC3)[nH]c(=O)c2C1` [17-110], the IC50 by setting is: under setting [1], less than 50 nM; under setting [2], less than 10 nM.
For the molecule `O=C(Cc1cccc(C(F)(F)F)c1F)N1CCCc2nc(C3(c4cccc(Cl)c4)CC3)[nH]c(=O)c2C1` [17-111], the IC50 under setting [1] was less than 50 nM and the IC50 under setting [2] was less than 10 nM.
For `O=C(Cc1cccc(OC(F)(F)F)c1)N1CCCc2nc(C3(c4cccc(Cl)c4)CC3)[nH]c(=O)c2C1` [17-112], the IC50 under setting [1] is less than 50 nM.
As to `O=C(Cc1cccc(SC(F)(F)F)c1)N1CCCc2nc(C3(c4cccc(Cl)c4)CC3)[nH]c(=O)c2C1` [17-113], the IC50 under setting [1] was less than 50 nM and the IC50 under setting [2] was less than 10 nM.
For `O=C(Cc1cccc(S(F)(F)(F)(F)F)c1)N1CCCc2nc(C3(c4cccc(Cl)c4)CC3)[nH]c(=O)c2C1` [17-114] the same measures were less than 50 nM and less than 10 nM.
The molecule `O=C(Cc1ccc2ccccc2c1)N1CCCc2nc(C3(c4cccc(Cl)c4)CC3)[nH]c(=O)c2C1` [17-115] showed an IC50 under setting [1] of less than 50 nM.
Take `O=C(Cc1cccc(C2CC2)c1)N1CCCc2nc(C3(c4cccc(Cl)c4)CC3)[nH]c(=O)c2C1` [17-116]: the IC50 reads like this: under setting [1], less than 50 nM; under setting [2], less than 10 nM.
Regarding `O=C(/C=C/c1cccc(C(F)(F)F)c1)N1CCCc2nc(C3(c4cccc(Cl)c4)CC3)[nH]c(=O)c2C1` [17-117], the IC50 under setting [1] was less than 50 nM and the IC50 under setting [2] is less than 10 nM.
For `O=C(Cc1cccc(-c2coc3ccccc23)c1)N1CCCc2nc(C3(c4cccc(Cl)c4)CC3)[nH]c(=O)c2C1` [17-118] the same measures were less than 50 nM and less than 10 nM.
In the case of `N#Cc1cc(Cl)cc(-c2cccc(CC(=O)N3CCCc4nc(C5(c6cccc(Cl)c6)CC5)[nH]c(=O)c4C3)c2)c1` [17-119], the IC50 by setting is: under setting [1], less than 50 nM; under setting [2], less than 3 nM.
As to `O=C(Cc1cccc2ccccc12)N1CCCc2nc(C3(c4cccc(Cl)c4)CC3)[nH]c(=O)c2C1` [17-120], the IC50 reads like this: under setting [1], less than 50 nM; under setting [2], less than 10 nM.
Consider `O=C(CCc1cccc(C(F)(F)F)c1)N1CCCc2nc(C3(c4cccc(Cl)c4)CC3)[nH]c(=O)c2C1` [17-121], for which, under setting [1], the IC50 is less than 50 nM.
On to `O=C(Cc1cccc(OCc2ccccc2)c1)N1CCCc2nc(C3(c4cccc(Cl)c4)CC3)[nH]c(=O)c2C1` [17-122], for which the IC50 by setting is: under setting [1], less than 50 nM; under setting [2], less than 10 nM.
The corresponding values for `O=C(Cc1cccc(-c2cccc(Cl)c2)c1)N1CCCc2nc(C3(c4cccc(-c5csc6ccccc56)c4)CC3)[nH]c(=O)c2C1` [17-123] are less than 50 nM and less than 10 nM.
For `O=C([C@H](O)c1cccc(Br)c1)N1CCCc2nc(C3(c4cccc(-c5csc6ccccc56)c4)CC3)[nH]c(=O)c2C1` [17-124] the same measures were less than 50 nM and less than 10 nM.
The corresponding values for `O=C(Cc1cccc(-c2cccc(C(F)(F)F)c2)c1)N1CCCc2nc(C3(c4cccc(-c5csc6ccccc56)c4)CC3)[nH]c(=O)c2C1` [17-125] are less than 50 nM and less than 10 nM.
Consider `N#Cc1ccc(-c2cccc(CC(=O)N3CCCc4nc(C5(c6cccc(Cl)c6)CC5)[nH]c(=O)c4C3)c2)cc1` [17-126], for which the IC50 was less than 50 nM under setting [1] and less than 10 nM under setting [2].
For `CC(C)(C)c1ccc(-c2cccc(CC(=O)N3CCCc4nc(C5(c6cccc(Cl)c6)CC5)[nH]c(=O)c4C3)c2)cc1` [17-127] the same measures were less than 50 nM and less than 10 nM.
As to `O=C(Cc1cccc(-c2ccc(C(F)(F)F)cc2)c1)N1CCCc2nc(C3(c4cccc(Cl)c4)CC3)[nH]c(=O)c2C1` [17-128], the IC50 is, setting by setting: under setting [1], less than 50 nM; under setting [2], less than 10 nM.
As to `O=C(Cc1cccc(-c2ccc(OC(F)(F)F)cc2)c1)N1CCCc2nc(C3(c4cccc(Cl)c4)CC3)[nH]c(=O)c2C1` [17-129], the IC50 is less than 50 nM under setting [1] and less than 10 nM under setting [2].
In the case of `O=C(Cc1cccc(-c2ccc(Cl)cc2)c1)N1CCCc2nc(C3(c4cccc(Cl)c4)CC3)[nH]c(=O)c2C1` [17-130], the IC50 is, setting by setting: under setting [1], less than 50 nM; under setting [2], less than 10 nM.
Take `N#Cc1ccc(-c2cccc(CC(=O)N3CCCc4nc(C5(c6ccccc6)CC5)[nH]c(=O)c4C3)c2)cc1` [17-131]: under setting [1], the IC50 was less than 50 nM.
Turning to `CC(C)(C)c1ccc(-c2cccc(CC(=O)N3CCCc4nc(C5(c6ccccc6)CC5)[nH]c(=O)c4C3)c2)cc1` [17-132], under setting [1], the IC50 was less than 50 nM.
Take `O=C(Cc1cccc(-c2ccc(C(F)(F)F)cc2)c1)N1CCCc2nc(C3(c4ccccc4)CC3)[nH]c(=O)c2C1` [17-133]: the IC50 runs as follows: under setting [1], less than 50 nM; under setting [2], less than 10 nM.
Turning to `O=C(Cc1cccc(-c2ccc(OC(F)(F)F)cc2)c1)N1CCCc2nc(C3(c4ccccc4)CC3)[nH]c(=O)c2C1` [17-134], the concentration for half-maximal inhibition (IC50) is less than 50 nM under setting [1] and less than 10 nM under setting [2].
For `O=C(Cc1cccc(-c2ccc(Cl)cc2)c1)N1CCCc2nc(C3(c4ccccc4)CC3)[nH]c(=O)c2C1` [17-135] the same measures were less than 50 nM and less than 10 nM.
Consider `O=C(Cc1cccc(-c2cccc(Cl)c2)c1)N1CCCc2nc(C3(c4ccccc4)CC3)[nH]c(=O)c2C1` [17-136], for which the IC50 is less than 50 nM under setting [1] and less than 10 nM under setting [2].
`O=C(Cc1cccc(-c2coc3ccccc23)c1)N1CCCc2nc(C3(c4ccccc4)CC3)[nH]c(=O)c2C1` [17-137] displayed an IC50 under setting [1] of less than 50 nM and an IC50 under setting [2] of less than 10 nM.
For `N#Cc1cc(Cl)cc(-c2cccc(CC(=O)N3CCCc4nc(C5(c6ccccc6)CC5)[nH]c(=O)c4C3)c2)c1` [17-138] the same measures were less than 50 nM and less than 10 nM.
For `O=C(Cc1ccccc1Oc1ccccc1)N1CCCc2nc(C3(c4cccc(Cl)c4)CC3)[nH]c(=O)c2C1` [17-139] the same measures were less than 50 nM and less than 10 nM.
Under setting [1], `O=C(Cc1cccc(Oc2ccccc2)c1)N1CCCc2nc(C3(c4cccc(Cl)c4)CC3)[nH]c(=O)c2C1` [17-140] yielded an IC50 of less than 50 nM.
As to `CC(C)(C)c1cccc(CC(=O)N2CCCc3nc(C4(c5cccc(Cl)c5)CC4)[nH]c(=O)c3C2)c1` [17-141], the IC50 runs as follows: under setting [1], less than 50 nM; under setting [2], less than 10 nM.

These data come from patent publication US12673946B2, “Pyrimidin-4(3H)-one derivatives as TRPV4 antagonists” (RaQualia Pharma Inc., priority 2020, dated 2026).
